From US12486218B2, “Compounds advantageous in the treatment of central nervous system diseases and disorders” (AurimMed Pharma, Inc., priority 2008, dated 2025)
Where two headings read alike, the source gives them in different places.

What was measured:
SMN2 promoter = SMN2 promoter β-lactamase reporter assay in NSC34 motor neuron-like cells; format: cell-based; details: for Promoter (SMN2 promoter test, summary YES/NO): Table 13 summary; for SMN2 promoter activity: treatment for 19 hours at a concentration of 1 μM
Method: FIG. 30 illustrates a screen for SMN2 expression of a number of compounds described herein.
SMN2 promoter activity was measured using NSC34 motor neuron-like cells stably transfected with a β-lactamase (BLA) reporter gene under the control of a 3.4-kilobase fragment of the SMN2 promoter. D156844 was used as a positive control for this assay.

mice [1] = assay: Maximal Electroshock Seizure (MES) test, mice i.p.; format: in vivo; details: for MES, fraction of animals: mice i.p.; for activity in the MES test: mice
mice [2] = assay: 6 Hz (minimal clonic seizure) model, mice i.p.; format: in vivo; details: for activity in the 6 Hz (minimal clonic seizure) model: mice; for 6 Hz (32 mA), fraction of animals: mice i.p.
[3] = system: rat dopaminergic N27 cells; assay: N27 protection assay against oxidative stress (H2O2 or MPP+; MTT and LDH); format: cell-based; details: drug 24 hours before 200 μM H2O2 or 640 μM MPP+
Description: FIGS. 20A-25D data are shown illustrating neuroprotective and neuroregenerative effects observed in rat dopaminergic N27 cells. Rat dopaminergic N27 cells are commonly used in in vitro and in vivo model systems for studying Parkinson's disease. Parkinson's disease is a neurodegenerative disorder of the central nervous system that affects more than 6 million people worldwide. The motor symptoms of Parkinson's disease result from the death of dopamine generating cells in the substantia nigra, a region of the midbrain.
The N27 rat dopaminergic neuron cell line was harvested from E12 rat mesencephalic tissue and was transfected with SV40 to immortalize the cell line. The N27 cell line, when injected into the striata of 6-hydroxydopamine-lesioned rats (an animal model of PD) caused a time-dependent improvement in neurological deficits. This immortalized cell line has been carefully characterized in studies of dopamine biosynthesis, neurotoxicity and used as a dopaminergic neuron model studies.
The N27 in vitro Parkinson's disease model included a test of cell viability and cell toxicity in response to exposure to oxidative stress (e.g., either 200 μM H2O2 or 640 μM MPP+).
Cell viability was tested using the MTT assay. The MTT assay is a colorimetric analysis based on the activities of mitochondrial NAD(P)H-dependent cellular oxidoreductase enzymes. These enzymes are capable of reducing the tetrazolium dye, MTT [3-(4,5-dimethylthiazol-2-yl)-2,5-diphenyltetrazolium] bromide, to an insoluble formazan (purple). […] More viable cells equal more accumulation of the insoluble formazan dye.
Cell toxicity was tested using the […] (LDH) assay. Cells that are stressed secrete LDH. In general, the more cells are stressed, the LDH they secrete into their media. The LDH assay is a reliable colorimetric assay to measure quantitatively the […] (LDH) that is released into the cell culture media from damaged cells as a biomarker for cytotoxicity and cytolysis.
FIGS. 20A-25D present data from two types of assays: protection and recovery assays. In the protection assays, the drug candidate was applied to the cells at various concentrations for 24 hours, followed by the exposure to oxidative stress (either 200 μM H2O2 or 640 μM MPP+) for measuring neuroprotective effect. H2O2 provides a broad measure of oxidative stress, while MPP+ gives a more specific oxidative stress to dopaminergic neurons.
The protection assay results are shown in panels A-C of FIGS. 20-25 In the recovery assays, the cells were first damaged by exposure to H2O2 and then various concentrations of the drug were applied to the cells. The results for the recovery assays are shown the D panels of FIGS. 20-25.

mice [4] = assay: Subcutaneous Metrazol Seizure threshold (s.c. MET) test, mice i.p.; format: in vivo; details: mice; at 300 mg/kg
[5] = system: inclusion of exon 7 in SMN2 mRNAs; assay: Exon 7 inclusion BLA reporter assay in NSC34 cell line; format: cell-based; details: for Exon 7 inclusion (summary YES/NO): Table 13 summary
Description: To measure changes in the inclusion of exon 7 in SMN2 mRNAs, another NSC34 cell line was used that stably transfected with a reporter construct which expresses BLA when exon 7 is included in the SMN2 minigene mRNAs. 5-(N-ethyl-N-isopropyl)-amiloride (EIPA) was used as a positive control for this assay. Data for tis assay is illustrated in FIG. 30.

mice [6] = assay: Minimal motor impairment (MID50), mice i.p.; details: mice i.p.; 100 mg/kg @ 0.5 hr
Method: The animal testing was performed according to methods known in the relevant art.

rats = assay: Pilocarpine-induced Status Epilepticus in Rats (prevention; intervention @ 30 min); details: Rattus norvegicus
Method: The animal testing was performed using the protocols developed in the Anticonvulsant Screening Program (ASP) at the National Institute of Neurological Disorders and Stroke (NINDS), National Institutes of Health (NIH).

[7] = NSC34 exon 7 BLA reporter cells
[8] = read-out: Prevention, Protection

Structure (SMILES)	Promoter (SMN2 promoter test, summary YES/NO) (SMN2 promoter)	SMN2 promoter activity (SMN2 promoter)	MES, fraction of animals (mice [1]; 100 mg/kg @ 0.5 hr)	activity in the 6 Hz (minimal clonic seizure) model (mice [2]; at 100 mg/kg)	neuroprotective effect against H2O2 and MPP+ oxidative stresses (MTT and LDH assays) [3]	activity in the MES test (mice [1]; at 100 mg/kg)	activity in the MES test (mice [1]; at 300 mg/kg)	other results
CC1CCN(C(=O)CC(C)c2ccc(OC(F)(F)F)cc2)CC1 (stereo not shown) [BK, 1-(4-Methyl-piperidin-1-yl)-3-(4-trifluoromethoxy-phenyl)-butan-1-one]	YES	increased SMN2 promoter activity	1/3	activity	statistically significant, dose-dependent neuroprotection	–	–	MES, fraction of animals (mice [1]; 100 mg/kg @ 2.0 hr): 2/3
COCCNC(=O)CC(C)c1ccc(OC(F)(F)F)cc1 (stereo not shown) [BL, N-(2-Methoxy-ethyl)-3-(4-trifluoromethoxy-phenyl)-butyramide]	–	–	–	activity	statistically significant, dose-dependent neuroprotection	activity	–	MES, fraction of animals (mice [1]; 100 mg/kg @ 0.25 hr): 2/3 @
COCCCNC(=O)CC(C)c1ccc(OC(F)(F)F)cc1 (stereo not shown) [BM, N-(3-Methoxy-propyl)-3-(4-trifluoromethoxy-phenyl)-butyramide]	–	increased SMN2 promoter activity	–	–	statistically significant, dose-dependent neuroprotection	–	activity	6 Hz (32 mA), fraction of animals (mice [2]; 100 mg/kg @ 0.5 hr): 1/4 @ 0.5 hr; activity in the s.c. MET test (mice [4]): activity
COc1ccc2cc(C(C)CC(N)=O)ccc2c1 (stereo not shown) [Compound AE, 3-(6-Methoxynaphthalen-2-yl)-butyramide]	–	–	–	–	statistically significant, dose-dependent neuroprotection	activity	–	6 Hz (32 mA), fraction of animals (mice [2]; 200 mg/kg @ 0.25 hr): 2/4 @ 0.25 hrs; activity in the 6 Hz (minimal clonic seizure) model (mice [2]; at 200 mg/kg): activity
CC(CC(N)=O)c1ccc(-c2ccccc2)c(F)c1 (stereo not shown) [Compound AX, 3-(2-Fluoro-biphenyl-4-yl)butyramide]	YES	increased SMN2 promoter activity	–	activity	–	–	–	SMN2 promoter assay, particularly strong hits (SMN2 promoter; NSC34 BLA reporter cells): particularly strong hits; effect on the inclusion of exon 7 in SMN2 transcripts [5, 7]: positive effect on the inclusion of exon 7; exon 7 test, particularly strong hits [5, 7]: Particularly strong hits; Exon 7 inclusion (summary YES/NO) [5]: YES; 6 Hz (32 mA), fraction of animals (mice [2]; 100 mg/kg @ 0.5 hr): 3/4; 6 Hz (32 mA), fraction of animals (mice [2]; 100 mg/kg @ 1.0 hr): 2/4; 6 Hz (32 mA), fraction of animals (mice [2]; 100 mg/kg @ 2.0 hr): 1/4 @
C[C@H](CC(N)=O)c1ccccc1 [Compound C, (R)-3-Phenylbutyramide]	–	–	1/6 @0.5 hr,	–	–	activity	–	MID50, fraction of animals (mice [6]): 1/8 @0.5 hr
CNC(=O)CC(C)c1ccc2c(c1)OCO2 (stereo not shown) [Compound M, N-methyl-3-(3,4-methylenedioxy-phenyl)butyramide]	YES	increased SMN2 promoter activity	–	–	potent dose-dependent neuroprotective effects	–	–	responders at 600 mg/kg (rats; [8]): 100%
CC(CC(=O)N(C)C)c1ccc2c(c1)OCO2 (stereo not shown) [Compound N, N,N-dimethyl-3-(3,4-methylenedioxy-phenyl)butyramide]	–	–	1/3 @0.5 hr,	–	potent dose-dependent neuroprotective effects	–	activity	–
CC(CC(N)=O)c1ccc2c(c1)OCO2 (stereo not shown) [L, 3-(3,4-methylenedioxy-phenyl)butyramide]	–	increased SMN2 promoter activity	–	–	–	–	activity	effect on the inclusion of exon 7 in SMN2 transcripts [5, 7]: positive effect on the inclusion of exon 7; Exon 7 inclusion (summary YES/NO) [5]: YES; responders at 600 mg/kg (rats; 0.5 h, read-out: Intervention @ 30 min, Protection): 29%; responders at 450 mg/kg (rats; [8]): 100%; activity in the s.c. MET test (mice [4]): activity
